From publication PMC6368365, “Didehydro-Cortistatin A Inhibits HIV-1 by Specifically Binding to the Unstructured Basic Region of Tat” (mBio, 2019) come the findings set out here.

Molecules are shown by their SMILES.

For assay [1], the system named is recombinant Tat transactivation of HIV-1 transcription in OM10.1 cells. The assay can be described thus: Transactivation assay with recombinant Tat in OM10.1 cell model of HIV-1 latency. Format: cell-based. The following applies: Tat 1 μg, dCA 250 nM. The source says: The production of functional recombinant HIV-1 Tat in Escherichia coli is not trivial as the proper folding of Tat is extremely important for activity, and when expressed by itself, Tat agglomerates mostly because of oxidation of the cysteine residues in the cysteine region. Tat can also adhere to different surfaces and anionic polymers via its charged and hydrophobic residues ([21], [22]). We produced and purified recombinant HIV Tat HXB3 (residues 1 to 89) with a 6×His tag in the C-terminus in E. coli. For this, we have partially optimized the arginine codon usage and changed the rare AGA into codon CGT at arginine positions 7, 53, 56, and 87 of Tat (Fig. 1A). […] After Tat purification using nickel affinity chromatography followed by size exclusion filtration, Tat protein size was analyzed by SDS-PAGE followed by Coomassie blue staining (Fig. 1B). The specificity of the bands was confirmed by Western blotting using anti-Tat serum and anti-His antibody (Fig. 1B). The purity of Tat was further verified by size exclusion chromatography and high-performance liquid chromatography (HPLC) (Fig. 1C and D). […]
FIG 1 Purity and activity of the monomeric His-tagged Tat HXB3 and analysis of its direct binding to dCA. […] Statistical significance was determined using one-way ANOVA with post hoc Tukey’s test. ns, not significant; ***, P < 0.0001; *, P < 0.01. […]

For a further assay, the target named is Tat-TAR interaction (Human immunodeficiency virus type 1 group M subtype B, UniProt P69697). The assay can be described thus: EMSA of full-length Tat with TAR. Format: biochemical, HIV-1. On the set-up: pTatC6H-1 (NIH AIDS Reagent Program) plasmid encoding C-terminal 6xHistidine Tat1-86 (HXB3, subtype B); made in house; host or cells: E. coli BL21 (plasmid pTatC6H-1, NIH AIDS Reagent Program). The following applies: radiolabeled TAR. The source says: Tat amplifies viral mRNA expression by binding through its basic domain to TAR, the 5′-terminal region stem-bulge-loop structure of HIV mRNAs, and recruits several cofactors to the viral promoter to promote transcriptional elongation. We investigated whether dCA could compete with TAR for Tat binding. For this purpose, we performed EMSA with radiolabeled TAR and recombinant Tat in the presence or absence of dCA (Fig. 6A).
EMSA with full-length Tat, a protocol similar to that of Das et al. was performed ([60]). Details on the EMSA with Tat’s basic peptide are provided in Text S1.
EMSA With full-length Tat: similar protocol was performed as in Das et al. (60). With Tat’s basic peptide: the 59-nucleotides TAR RNA was prepared by in vitro T7 RNA polymerase transcription according to Maxiscript kit manufacturer’s instructions (Ambion). The radiolabeled RNA was purified by urea gel followed by phenol-chloroform extraction. Binding reaction mixture (25 µL of 10 mM Tris HCL pH 7.5, NaCl 70 mM, EDTA 0.2 mM, NP40 0.01 %, Glycerol 5 % and tRNA 100 ng/µL) contained traces of radiolabeled TAR RNA and basic peptide (Pep B, residues 45-59) (or peptide C “Pep C”, residues 69-83, as negative control) in combination or not with compounds or cold TAR. The mixture was incubated for 10 min at room temperature (RT). […]
Background: A gel shift assay detects complexes by their altered migration in electrophoresis.

Sequence of Tat-TAR interaction (P69697 whole entry, the tested form may be a part): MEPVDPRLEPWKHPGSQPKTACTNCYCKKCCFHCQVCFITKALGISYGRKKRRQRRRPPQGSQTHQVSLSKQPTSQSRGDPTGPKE

Turning to `C[C@@](Cc1ccc(O)c(O)c1)(NN)C(=O)O.O` [SCM, S-(−)-carbidopamonohydrate, reference compound], the “inhibition of recombinant Tat transactivation (HIV mRNA)” value in assay [1] was “no activity”. On to `CN(C)C1CC23CCC4(O2)C(=CCC2(C)C(c5ccc6ccncc6c5)=CCC24)C=C3C(O)C1O` (stereo not shown) [dCA, didehydro-cortistatin A], for which the “inhibition of recombinant Tat transactivation (HIV mRNA)” value in assay [1] is “inhibited transcriptional activity of Tat”. For the same compound, the “inhibition of Tat-TAR interaction (EMSA)” value at Tat-TAR interaction is reported as “inhibited the interaction of Tat with TAR in a dose-responsive manner”. Regarding `Cc1nnc(C(=O)NC(C)(C)c2nc(C(=O)NCc3ccc(F)cc3)c(O)c(=O)n2C)o1` [raltegravir, reference compound], the “inhibition of Tat-TAR interaction (EMSA)” value on Tat-TAR interaction is “no inhibitory activity”.
